{"source": "patent US11612641B2", "about": "“Method for treating Huntingtons's disease” (UNIVERSITY OF IOWA RESEARCH FOUNDATION, priority 2014, dated 2023)", "key": {"[1]": {"system": "Q7 and Q111 striatal cells", "test": "Western blot of Q7 and Q111 striatal cells treated with Torin1", "assay_type": "cell-based", "settings": "250 nM Torin1, 24 hours", "protocol": "(§1) Mutant (Q111) and WT (Q7) striatal cells (Trettel et al., 2000) with full-length HTT were kindly provided by Dr. Marcy MacDonald. The Q7 and Q111 cells were grown at 37° C. in Dulbecco's modified Eagle's medium (DMEM; Sigma Chemical Co, St. Louis, Mo.) supplemented with 10% fetal bovine serum, 1% non-essential amino acids, 2 mM L-glutamine, and 400 μg/ml G418 (Geneticin; Invitrogen, Carlsbad, Calif.).\nMouse striata were harvested and lysed in RIPA buffer containing 50 mM Tris (pH 8.0), 150 mM NaCl, 1% […] detergent, 0.1% SDS detergent, 0.5% deoxycholic acid, and 1 mM β-mercaptoethanol with protease inhibitors (Complete Mini, Roche Applied Science, Mannheim, Germany) and phosphatase inhibitors (PhosSTOP Phosphatase Inhibitor Cocktail, Roche Applied Science, Mannheim, Germany). Tissues were homogenized on ice and spun at 14,000 g for 20 min. Supernatant were used for analysis. Protein concentration was determined by BCA assay (Pierce, Rockford, Ill.) and 20-30 μg of protein was reduced and separated by SDS-PAGE on 4%-10% acrylamide gels and transferred to 0.2 μm Immobilon PVDF membranes (Millipore, Billerica, Mass.). The primary antibodies used were as follows: DARPP-32 (1:1000, Cell Signaling), β-actin (Sigma-Aldrich, 1:5000), S6 (1:1000, Cell Signaling), phospho-S6 (S235/236, 1:1000, Cell Signaling), 4EBP1 (1:1000, Cell Signaling), phospho-4E-BP1 (T37/46, 1:1000, Cell Signaling), mTOR (1:1000, Cell Signaling), Rictor (1:1000, Cell Signaling), Raptor (1:1000, Cell Signaling), CREB (1:1000, Cell Signaling), TORC1 (1:1000, Cell Signaling), PGC1-α (1:1000, abeam), LC3 (1:1000, Novus Biologicals), and Beclin1 (1:1000, Cell Signaling). Secondary antibodies used were HRP-goat anti-mouse IgG and HRP-goat anti-rabbit IgG (Cell Signaling). Blots were developed using ECL Plus Western Blotting Detection System (GE Healthcare, Pittsburgh, Pa.), and then exposed to film. Protein quantification was performed using NIH ImageJ software or the VersaDoc™ Imaging System (Biorad) and Quantity One R analysis software. Band densities were normalized to housekeeping (β-actin) bands from the same samples and lanes."}, "[2]": {"system": "Q7 and Q111 striatal cells", "test": "RT-qPCR of HMGCR and HMGCS1 in Q7 and Q111 striatal cells treated with Torin1", "assay_type": "cell-based", "settings": "250 nM Torin1, 24 hours, both mutant and normal cell lines", "protocol": "as §1\nRNA was isolated from striatal punches using 1 ml of TRIzol. Random-primed first-strand complementary DNA (cDNA) synthesis was performed using 500 ng total RNA (High Capacity cDNA Reverse Transcription Kit; Applied Biosystems, Foster City, Calif.) per manufacturer's protocol. Real-time PCR was performed on a sequence detection system (Prism 7900HT, Applied Biosystems) using SYBR green PCR mix (Invitrogen) or TaqMan 2× Universal Master Mix (Applied Biosystems). The following Taqman primer/probe sets were obtained from Applied Biosystem: Rhes (Mm04209172_m1 and Hs04188091_mH), PGC1-α (Mm01208835_m1), and HMGCS1 (Mm01304569_m1), and HDAC4 (Mm01299557_m1). The primer sequences for SYBR green RT PCR are available upon request. Relative gene expression was determined using the AACT method, normalizing to β-actin."}, "[3]": {"system": "medium spiny neurons (MSN)", "test": "DARPP-32 staining: MSN cell area and striatal volume in N171-82Q mice", "assay_type": "in vivo, mouse", "text": "(§2) All animal protocols were approved by the University of Iowa Animal Care and Use Committee. N171-82Q mice were obtained from Jackson Laboratories (Bar Harbor, Me.) and maintained on B6C3F1/J background. Mice were genotyped using primers specific for the mutant human HTT transgene, and hemizygous and age-matched wild-type littermates were used for the indicated experiments. Mice were housed in a controlled temperature environment on a 12-hour light/dark cycle. Food and water were provided ad libitum. For pharmacological studies, RAD001 was obtained from LC Laboratories, diluted to 2 mg/ml in 2% DMSO, and stored at −20° C. […]\n(§3) Floating, 40-μm coronal brain sections were processed for immunohistochemical staining of medium spiny neurons or mHTT aggregates using biotin-labeled antibody. […] S6 phosphorylation was detected with a phospho-S6 antibody (S235/236, 1:300, Cell Signaling). […] The areas of DARPP-32 positive MSN were quantified by Olympus DP2-BSW software (version 2.1). The average MSN areas of ipsilateral injected sides were compared to contralateral control sides and expressed as means+SEM. EM48 positive inclusions were counted by an experimenter blinded to treatment groups.\nStriatal volume was calculated using point counting methods with the Cavalieri estimator of volume (Michel and Cruz-Orive, 1988). […] A minimum of 200 points were counted over 5 sections. […]"}, "mTORC1": {"target": "T1, mTORC1 (Mus musculus, UniProt P26883+Q9JLN9)", "T1 construct": "Biochemical assessment of mTORC1 activity (pS6) in striatal lysates from N171-82Q mice; from tissue; host or cells: striatum of N171-82Q transgenic mice (in vivo)", "test": "mTORC1 activity (pS6) in striatum of N171-82Q mice given RAD001", "assay_type": "in vivo", "settings": "RAD001 for 2 weeks vs vehicle, striata harvested 24 hours after the last dose", "text": "as §2, with “C. Freshly thawed vehicle and RAD001 (30 μmol/kg) were given 3 times per week (Monday, Wednesday, and Friday) for two weeks by gavage as described previously (Fox et al., 2010).” for “C.”\nas §3, with “groups. […]” for “groups.”"}, "R6/2 HD mice": {"system": "R6/2 HD mice", "settings": "R6/2 HD mice (Fox et al., 2010); cited from earlier work"}}, "note": "Entries after “also recorded” stand apart in the source; their conditions may differ.", "data": [{"smiles": "CCC(=O)N1CCN(c2ccc(-n3c(=O)ccc4cnc5ccc(-c6cnc7ccccc7c6)cc5c43)cc2C(F)(F)F)CC1", "note": "[Torin1]", "values": [{"measurement": "CREB", "setting": "[1]", "result": "repressed"}, {"measurement": "DARPP-32 expression", "setting": "[1]", "result": "reduced"}, {"measurement": "PGC1-α", "setting": "[1]", "result": "repressed"}, {"measurement": "p-4E-BP1 levels", "setting": "[1]", "result": "reduced"}, {"measurement": "pS6 levels", "setting": "[1]", "result": "reduced"}, {"measurement": "transducer of regulated CREB 1 (TORC1)", "setting": "[1]", "result": "repressed"}, {"measurement": "HMGCR expression", "setting": "[2]", "result": "reduced expression"}, {"measurement": "HMGCS1 expression", "setting": "[2]", "result": "reduced expression"}]}, {"smiles": "CO[C@H]1C[C@@H]2CC[C@@H](C)[C@@](O)(O2)C(=O)C(=O)N2CCCC[C@H]2C(=O)O[C@H]([C@H](C)C[C@@H]2CC[C@@H](OCCO)[C@H](OC)C2)CC(=O)[C@H](C)/C=C(\\C)[C@@H](O)[C@@H](OC)C(=O)[C@H](C)C[C@H](C)/C=C/C=C/C=C/1C", "note": "[RAD001]", "values": [{"measurement": "MSN atrophy", "setting": "[3]; 2 weeks of RAD001 treatment in the absence of caRheb, N171-82Q mice", "result": "mild but significant exacerbation"}, {"measurement": "morphological effects of caRheb (MSN cell size, striatal volume)", "setting": "[3]; RAD001 30 μmol/kg by gavage 3 times per week for two weeks in AAV.caRheb injected N171-82Q mice", "result": "reversed"}, {"measurement": "mTORC1 activity (S6 phosphorylation, pS6)", "setting": "mTORC1", "result": "attenuated; also recorded: inhibits mTORC1 activity"}]}, {"smiles": "CO[C@H]1C[C@@H]2CC[C@@H](C)[C@@](O)(O2)C(=O)C(=O)N2CCCC[C@H]2C(=O)O[C@H]([C@H](C)C[C@@H]2CC[C@@H](O)[C@H](OC)C2)CC(=O)[C@H](C)/C=C(\\C)[C@@H](O)[C@@H](OC)C(=O)[C@H](C)C[C@H](C)/C=C/C=C/C=C/1C", "note": "[rapamycin]", "values": [{"measurement": "brain atrophy", "setting": "R6/2 HD mice", "result": "enhanced brain atrophy"}, {"measurement": "weight loss", "setting": "R6/2 HD mice", "result": "accelerated weight loss"}]}]}
